From patent US20250179059A1 (The Regents of the University of California, priority 2021, published 2025) come the findings set out here.

Where two headings read alike, the source gives them in different places.

Test [1] has as its target T1, human BRD4 bromodomain II (Homo sapiens, UniProt O60885).
T1 construct: human BRD4 bromodomain II [based on Genbank NM_058243, residues 349-460]; host or cells: E. coli
As to the kind of experiment: Bromodomain binding assay (AlphaScreen), BRD4 BDII. The method in brief: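 Inhibition of acetyl-H4 peptide binding to human BRD4 bromodomains is measured by bead-based proximity (AlphaScreen) in pH 7.5 HEPES buffer containing 0.05% CHAPS and 0.1% BSA. Ten compound concentrations in 3-fold steps give competitive binding IC50s.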

The test system of test [2] is human SKM-1 acute myeloid leukemia cells. Briefly: SKM-1 antiproliferation cell-based assay (ATPlite). Conditions: Homo sapiens. The method, then: The cell-based assay indirectly measures cell density (and therefore proliferation and/or survival) by detecting total ATP concentration in a homogeneous format. Briefly, human SKM-1 acute myeloid leukemia cells (Leibniz Institute DSMZ #ACC 547) proliferating in log phase are collected by centrifugation, re-suspended in culture media (RPMI 1640/15% FBS/100 U/mL penicillin/100 μg/mL streptomycin) and diluted to 34722 cells/mL in media after counting. Then 180 μL cells are plated per well into a 96-well tissue-culture treated, clear bottom plate (Coming #3603). A 96-well compound plate (Corning #3357) is then generated by serial dilution of compounds into DMSO over nine concentrations and adding separate negative (DMSO) and positive control (reference compound) wells. Each compound concentration is tested in triplicate. First, 1 μL from each well of the compound plate is added to 99 μL culture media in an intermediate plate and mixed by pipetting. Then 20 μL of the diluted compounds in media are added to the assay plate containing the cells. The assay plate is maintained for 4 days in a standard cell culture incubator. At the end of the incubation period, 100 μL ATPlite Istep (PerkinElmer) is added to the assay plate wells, and the resulting luminescence is detected using an Infinite M1000 or a Spark multimode plate reader (Tecan). Data analysis is performed in Prism (GraphPad Software). For curve fitting, a non-linear regression, variable slope equation is used to calculate cellular IC50s.
For orientation: ATP-based viability assays read luminescence as a measure of living cells.

[3] abbreviates: AlphaScreen assay, Table C2, read-out: BRD4 BDII IC50.
The mark [4] stands for this setting: SKM-1, 96 h, SKM-1 antiproliferation assay, 4 days, Table C2.
The mark [5] stands for this setting: BRD4 BDII AlphaScreen assay, read-out: BRD4 BD2 IC50.
Setting [6] is: SKM-1, SKM-1 antiproliferation assay.

As a reminder, the IC50 is the concentration at which inhibition is half-maximal. Usually GI50 stands for the concentration at which growth is held to half of that of the control. A lower GI50 goes with greater sensitivity of the cells.

In the case of `O=C1NCCCN1c1ccc(-c2cccc(-c3ccnc(N4CCNCC4)c3)c2O)cc1F` [Example 277, 1-(3-fluoro-2′-hydroxy-3′-(2-(piperazin-1-yl)pyridin-4-yl)-[1,1′-biphenyl]-4-yl)tetrahydropyrimidin-2(1H)-one], the IC50 in test [1] (setting [3]) is over 100 nM. This compound also gave a concentration for 50% growth inhibition (GI50) in test [2] (setting [4]) of 300 to 3000 nM.

On to `O=C1CCC(=O)N1c1ccc(-c2cccc(-c3ccnc(N4CCNCC4)c3)c2O)cc1F` [Example 303, 1-(3-fluoro-2′-hydroxy-3′-(2-(piperazin-1-yl)pyridin-4-yl)-[1,1′-biphenyl]-4-yl)pyrrolidine-2,5-dione], for which the IC50 in test [1] (setting [3]) is over 100 nM. In test [2] (setting [4]), this compound yielded a GI50 of at least 3000 nM.

`Cc1ncc(-c2cc(F)cc(-c3ccc(-n4ccn(C)c4=O)c(Cl)c3)c2O)cc1N1CC(F)(F)[C@](C)(O)C1` [Example 898]: the 50% inhibitory concentration (IC50) in test [1] (setting [5]) was 1 to 10 nM. Moreover, the GI50 in test [2] (setting [6]) lay within 30 to 300 nM.

As for `CC(=O)NC1(C)C2CCC1CN(c1cc(-c3cc(F)cc(-c4ccc(-n5ccn(C)c5=O)c(Cl)c4)c3O)ccn1)C2` (stereo not shown) [Example 780, N-(3-(4-(3′-chloro-5-fluoro-2-hydroxy-4′-(3-methyl-2-oxo-2,3-dihydro-1H-imidazol-1-yl)-[1,1′-biphenyl]-3-yl)pyridin-2-yl)-8-methyl-3-azabicyclo[3.2.1]octan-8-yl)acetamide], in test [1] (setting [3]), the half-inhibitory concentration (IC50) fell in the range of 1 to 10 nM. Moreover, in test [2] (setting [4]), the GI50 was in the range of 30 to 300 nM.

`Cc1nc(-c2cc(F)cc(-c3cccc(N4CCN(C(C)(C)C)CC4)c3)c2O)ccc1-n1ccn(C)c1=O` [Example 936, 1-(6-(3′-(4-(tert-butyl)piperazin-1-yl)-5-fluoro-2-hydroxy-[1,1′-biphenyl]-3-yl)-2-methylpyridin-3-yl)-3-methyl-1H-imidazol-2(3H)-one]: the IC50 in test [1] (setting [5]) is over 100 nM. Further, in test [2] (setting [6]), the GI50 fell in the range of 300 to 3000 nM.

`CCN1CCN(c2cc(-c3cc(F)cc(-c4ccc(-n5ccn(C)c5=O)c(Cl)c4)c3O)ccn2)CC1` [Example 469, 1-(3-chloro-3′-(2-(4-ethylpiperazin-1-yl)pyridin-4-yl)-5′-fluoro-2′-hydroxy-[1,1′-biphenyl]-4-yl)-^3-methyl-1H-imidazol-2(3H)-one]: the 50% inhibitory concentration (IC50) in test [1] (setting [3]) was in the range of 0.01 to 1 nM. For the same compound, the GI50 in test [2] (setting [4]) was in the range of 0.3 to 30 nM.

As for `C[C@@H]1CN(c2cc(-c3cc(F)cc(-c4ccc(-n5ccn(C)c5=O)c(Cl)c4)c3O)cc3[nH]nnc23)CCN1` [Example 536, (R)-1-(3-chloro-5′-fluoro-2′-hydroxy-3′-(4-(3-methylpiperazin-1-yl)-1H-benzo[d][1,2,3]triazol-6-yl)-[1,1′-biphenyl]-4-yl)-3-methyl-1H-imidazol-2(3H)-one], the concentration for half-maximal inhibition (IC50) in test [1] (setting [3]) lay in the range of 1 to 10 nM. In addition, in test [2] (setting [4]), the GI50 was in the range of 0.3 to 30 nM.

In the case of `CN1CCCC12CCN(c1cc(-c3cc(F)cc(-c4ccc(-n5ccn(C)c5=O)c(Cl)c4)c3O)ccn1)C2` (stereo not shown) [Example 637, 1-(3-chloro-5′-fluoro-2′-hydroxy-3′-(2-(1-], the 50% inhibitory concentration (IC50) in test [1] (setting [3]) fell in the range of 0.01 to 1 nM. The compound also showed a concentration for 50% growth inhibition (GI50) in test [2] (setting [4]) of 0.3 to 30 nM.

As for `CN1CCN(c2ccc(-c3cccc(-c4cccc(N5CCNCC5)c4)c3O)cc2F)C1=O` [Example 164, 1-(3-Fluoro-2′-hydroxy-3″-(piperazin-1-yl)-[1,1′:3′,1″-terphenyl]-4-yl)-3-methylimidazolidin-2-one], in test [1] (setting [3]), the IC50 is 1 to 10 nM. In test [2] (setting [4]), the 50% growth inhibitory concentration (GI50) is 300 to 3000 nM.

For `O=C1CCCN1c1ccc(-c2cccc(-c3ccnc(N4CC5(CNC5)C4)c3)c2O)cc1F` [Example 284, 1-(3′-(2-(2,6-diazaspiro[3.3]heptan-2-yl)pyridin-4-yl)-3-fluoro-2′-hydroxy-[1,1′-biphenyl]-4-yl)pyrrolidin-2-one], in test [1] (setting [3]), the IC50 is 10 to 100 nM. In test [2] (setting [4]), the concentration for 50% growth inhibition (GI50) was in the range of 300 to 3000 nM.

Take `Cn1ccn(-c2ccc(-c3cc(F)cc(-c4cc(N5CC6CCC5CN6)c5cn[nH]c5c4)c3O)cc2Cl)c1=O` (stereo not shown) [Example 600, 1-(3′-(4-(2,5-diazabicyclo[2.2.2]octan-2-yl)-1H-indazol-6-yl)-3-chloro-5′-fluoro-2′-hydroxy-[1,1′-biphenyl]-4-yl)-3-methyl-1H-imidazol-2(3H)-one]: the IC50 in test [1] (setting [3]) lay in the range of 1 to 10 nM. In test [2] (setting [4]), this compound showed a GI50 of 0.3 to 30 nM.

For the compound `Cc1ncc(-c2cc(F)cc(-c3ccc(-n4ccn(C)c4=O)c(Cl)c3)c2O)cc1N1CC(C)(O)C2(CC2)C1` (stereo not shown) [Example 829, 1-(3-chloro-5′-fluoro-2′-hydroxy-3′-(5-(7-hydroxy-7-methyl-5-azaspiro[2.4]heptan-5-yl)-6-methylpyridin-3-yl)-[1,1′-biphenyl]-4-yl)-3-methyl-1H-imidazol-2(3H)-one], the IC50 in test [1] (setting [3]) is 0.01 to 1 nM. The compound further displayed a concentration for 50% growth inhibition (GI50) in test [2] (setting [4]) of 0.3 to 30 nM.

On to `CC(C)N1C2CCC1CN(c1cc(-c3cc(F)cc(-c4ccc(-n5ccn(C)c5=O)c(Cl)c4)c3O)ccn1)C2` [Example 730, 1-(3-chloro-5′-fluoro-2′-hydroxy-3′-(2-(8-isopropyl-3,8-diazabicyclo[3.2.1]octan-3-yl)pyridin-4-yl)-[1,1′-biphenyl]-4-yl)-3-methyl-1H-imidazol-2(3H)-one], for which, in test [1] (setting [3]), the 50% inhibitory concentration (IC50) fell in the range of 0.01 to 1 nM. In test [2] (setting [4]), this compound showed a GI50 of 0.3 to 30 nM.

Take `CC(=O)Nc1ccc(-c2cccc(-c3cc(N)nc(N4CCNCC4)c3)c2O)cc1F` [Example 348, N-(3′-(2-amino-6-(piperazin-1-yl)pyridin-4-yl)-3-fluoro-2′-hydroxy-[1,1′-biphenyl]-4-yl)acetamide]: the half-maximal inhibitory concentration (IC50) in test [1] (setting [3]) lay within 1 to 10 nM. In test [2] (setting [4]), this compound showed a GI50 of 30 to 300 nM.

As for `Cn1cc(-c2cccc(N3CCN(C(C)(C)C)CC3)c2)c(O)c(-c2ccc(-n3ccn(C)c3=O)c(Cl)c2)c1=O` [Example 1030, 5-(3-(4-(tert-Butyl)piperazin-1-yl)phenyl)-3-(3-chloro-4-(3-methyl-2-oxo-2,3-dihydro-1H-imidazol-1-yl)phenyl)-4-hydroxy-1-methylpyridin-2(1H)-one], in test [1] (setting [5]), the IC50 fell in the range of 10 to 100 nM. Further, the GI50 in test [2] (setting [6]) was 300 to 3000 nM.

Turning to `Cn1ccn(-c2ccc(-c3cc(F)cc(-c4cc(N5CCN6CCCCC6C5)c5cn[nH]c5c4)c3O)cc2Cl)c1=O` (stereo not shown) [Example 601, 1-(3-chloro-5′-fluoro-3′-(4-(hexahydro-1H-pyrido[1,2-a]pyrazin-2(6H)-yl)-1H-indazol-6-yl)-2′-hydroxy-[1,1′-biphenyl]-4-yl)-3-methyl-1H-imidazol-2(3H)-one], the IC50 in test [1] (setting [3]) was in the range of 0.01 to 1 nM. The compound also displayed a GI50 in test [2] (setting [4]) of 0.3 to 30 nM.

As for `Cn1cnn(-c2ccc(-c3cc(F)cc(-c4ccnc(N5CCNCC5)c4)c3O)cc2Cl)c1=O` [Example 499, 1-(3-chloro-5′-fluoro-2′-hydroxy-3′-(2-(piperazin-1-yl)pyridin-4-yl)-[1,1′-biphenyl]-4-yl)-^4-methyl-1H-1,2,4-triazol-5(4H)-one], the half-maximal inhibitory concentration (IC50) in test [1] (setting [3]) lay within 1 to 10 nM. For the same compound, the concentration for 50% growth inhibition (GI50) in test [2] (setting [4]) lay in the range of 30 to 300 nM.

Take `CCN1CCN(c2ccc(-c3cccc(-c4ccnc(N5CCNCC5)c4)c3O)cc2Cl)C1=O` [Example 346, 1-(3-chloro-2′-hydroxy-3′-(2-(piperazin-1-yl)pyridin-4-yl)-[1,1′-biphenyl]-4-yl)-3-ethylimidazolidin-2-one]: in test [1] (setting [3]), the half-maximal inhibitory concentration (IC50) was over 100 nM. The 50% growth inhibitory concentration (GI50) in test [2] (setting [4]) was in the range of 300 to 3000 nM.

Consider `CN1CCN(c2ccc(-c3cc(C(C)(C)C)cc(-c4ccnc(N5CCNCC5)c4)c3O)cc2Cl)C1=O` [Example 310, 1-(5′-(tert-butyl)-3-chloro-2′-hydroxy-3′-(2-(piperazin-1-yl)pyridin-4-yl)-[1,1′-biphenyl]-4-yl)-3-methylimidazolidin-2-one], for which the IC50 in test [1] (setting [3]) was over 100 nM. In test [2] (setting [4]), this compound returned a GI50 of 300 to 3000 nM.

In the case of `CC(C)N1CCN(c2ccc(-c3cc(F)cc(-c4ccnc(N5CCNCC5)c4)c3O)cc2Cl)C1=O` [Example 364, 1-(3-chloro-5′-fluoro-2′-hydroxy-3′-(2-(piperazin-1-yl)pyridin-4-yl)-[1,1′-biphenyl]-4-yl)-3-isopropylimidazolidin-2-one], the concentration for half-maximal inhibition (IC50) in test [1] (setting [3]) is over 100 nM. Besides, in test [2] (setting [4]), the GI50 was at least 3000 nM.

In the case of `C[C@@H]1CN(c2cc(-c3cc(F)cc(-c4ccc(-n5ccn(C)c5=O)c(Cl)c4)c3O)cnn2)CCN1` [Example 650, (R)-1-(3-chloro-5′-fluoro-2′-hydroxy-3′-(6-(3-methylpiperazin-1-yl)pyridazin-4-yl)-[1,1′-biphenyl]-4-yl)-3-methyl-1H-imidazol-2(3H)-one], the 50% inhibitory concentration (IC50) in test [1] (setting [3]) lay within 0.01 to 1 nM. Also, in test [2] (setting [4]), the GI50 was in the range of 0.3 to 30 nM.

For `CC(=O)NC1(c2cccc(-c3cc(F)cc(-c4ccc(-n5ccn(C)c5=O)c(Cl)c4)c3O)c2)CC1` [Example 764, N-(1-(3″-chloro-5′-fluoro-2′-hydroxy-4″-(3-methyl-2-oxo-2,3-dihydro-1H-imidazol-1-yl)-[1,1′:3′,1″-terphenyl]-3-yl)cyclopropyl)acetamide], in test [1] (setting [3]), the IC50 fell in the range of 1 to 10 nM. In test [2] (setting [4]), this compound showed a GI50 of 300 to 3000 nM.

As for `CC(=O)Nc1ccc(-c2cc(F)cc(-c3cccc(N4CCN(C(C)(C)C)CC4)c3)c2O)nc1` [Example 912, N-(6-(3′-(4-(tert-butyl)piperazin-1-yl)-5-fluoro-2-hydroxy-[1,1′-biphenyl]-3-yl)pyridin-3-yl)acetamide], in test [1] (setting [5]), the IC50 was over 100 nM. In addition, the GI50 in test [2] (setting [6]) fell in the range of 300 to 3000 nM.
